Results: PubChem BioAssay (NCI)
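Dose response: 5 concentrations. Exposure: 48 h. Format: 96-well plates. Endpoint: linear interpolation; highest concentration if not reached. The concentration for 50% growth inhibition is given as GI50. TGI: total growth inhibition.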

How the values were obtained:
Experiment in all cases: DTP human tumour cell line panel, 48 h
[1] = tested on: T-47D breast
[2] = tested on: DU-145 prostate
[3] = tested on: MOLT-4 leukemia
[4] = tested on: RXF 393 renal
[5] = tested on: EKVX NSCLC
[6] = tested on: OVCAR-8 ovarian
[7] = tested on: NCI/ADR-RES ovarian
[8] = tested on: SK-MEL-28 melanoma
[9] = tested on: SNB-19 CNS
[10] = tested on: CAKI-1 renal
[11] = tested on: COLO 205 colon
[12] = tested on: A549 NSCLC
[13] = tested on: IGROV1 ovarian
[14] = tested on: HL-60(TB) leukemia
[15] = tested on: UACC-257 melanoma
[16] = tested on: TK-10 renal
[17] = tested on: RPMI-8226 leukemia
[18] = tested on: HS 578T breast
[19] = tested on: BT-549 breast
[20] = tested on: SF-539 CNS
[21] = tested on: A498 renal
[22] = tested on: PC-3 prostate
[23] = tested on: SK-OV-3 ovarian
[24] = tested on: MDA-MB-468 breast
[25] = tested on: SF-268 CNS
[26] = tested on: U251 CNS
[27] = tested on: NCI-H226 lung
[28] = tested on: LOX IMVI melanoma
[29] = tested on: NCI-H522 lung
[30] = tested on: UO-31 renal
[31] = tested on: MDA-MB-231 breast
[32] = tested on: 786-0 renal
[33] = tested on: K-562 leukemia
[34] = tested on: SK-MEL-5 melanoma
[35] = tested on: HCT-15 colon
[36] = tested on: ACHN renal
[37] = tested on: MALME-3M melanoma
[38] = tested on: HOP-92 NSCLC
[39] = tested on: SN12C renal
[40] = tested on: CCRF-CEM leukemia
[41] = tested on: OVCAR-3 ovarian
[42] = tested on: SR leukemia
[43] = tested on: HOP-62 NSCLC
[44] = tested on: HT29 colon
[45] = tested on: OVCAR-5 ovarian
[46] = tested on: OVCAR-4 ovarian
[47] = tested on: SK-MEL-2 melanoma
[48] = tested on: MCF7 breast
[49] = tested on: UACC-62 melanoma
[50] = tested on: MDA-MB-435
[51] = tested on: SF-295 CNS
[52] = tested on: HCC-2998 colon
[53] = tested on: M14 melanoma
[54] = tested on: NCI-H23 lung
[55] = tested on: KM12 colon
[56] = tested on: NCI-H460 lung
[57] = tested on: SW-620 colon
[58] = tested on: HCT-116 colon

**Q.** Which results are given for COc1ccc(C(=O)/C=C/c2ccc3ccccc3c2)cc1S(N)(=O)=O?
**A.** GI50 [1]: 1760 nM; TGI [1]: 6.77 µM; GI50 [2]: 3.31 µM; TGI [2]: 11.8 µM; GI50 [3]: 2090 nM; TGI [3]: 4.95 µM; GI50 [4]: 1570 nM; TGI [4]: 3.34 µM; GI50 [5]: 6.61 µM; TGI [5]: 20.1 µM; GI50 [6]: 2480 nM; TGI [6]: 7.04 µM; GI50 [7]: 2700 nM; TGI [7]: 8.21 µM; GI50 [8]: 2130 nM; TGI [8]: 5.14 µM; GI50 [9]: 2150 nM; TGI [9]: 5.95 µM; GI50 [10]: 2120 nM; TGI [10]: 6.17 µM; GI50 [11]: 1960 nM; TGI [11]: 4.06 µM; GI50 [12]: 1990 nM; TGI [12]: 7.72 µM; GI50 [13]: 2070 nM; TGI [13]: 5.36 µM; GI50 [14]: 1610 nM; TGI [14]: 4.11 µM; GI50 [15]: 3.79 µM; TGI [15]: 14.5 µM; GI50 [16]: 2040 nM; TGI [16]: 8.17 µM; GI50 [17]: 1630 nM; TGI [17]: 4.62 µM; GI50 [18]: 17.5 µM; TGI [18]: 54.8 µM; GI50 [19]: 1530 nM; TGI [19]: 3.27 µM; GI50 [20]: 1690 nM; TGI [20]: 3.15 µM; GI50 [21]: 14.6 µM; TGI [21]: 28.2 µM; GI50 [22]: 1780 nM; TGI [22]: 4.05 µM; GI50 [23]: 4.91 µM; TGI [23]: 18.6 µM; GI50 [24]: 1430 nM; TGI [24]: 2900 nM; GI50 [25]: 3.2 µM; TGI [25]: 13.3 µM; GI50 [26]: 1190 nM; TGI [26]: 2460 nM; GI50 [27]: 2360 nM; TGI [27]: 8.37 µM; GI50 [28]: 1320 nM; TGI [28]: 2590 nM; GI50 [29]: 1620 nM; TGI [29]: 3.32 µM; GI50 [30]: 1310 nM; TGI [30]: 2580 nM; GI50 [31]: 2500 nM; TGI [31]: 7.51 µM; GI50 [32]: 1690 nM; TGI [32]: 3.62 µM; GI50 [33]: 1580 nM; TGI [33]: 5.45 µM; GI50 [34]: 3.48 µM; TGI [34]: 13.6 µM; GI50 [35]: 574 nM; TGI [35]: 2080 nM; GI50 [36]: 1780 nM; TGI [36]: 3.37 µM; GI50 [37]: 3.2 µM; TGI [37]: 14.9 µM; GI50 [38]: 1900 nM; TGI [38]: 9.2 µM; GI50 [39]: 1560 nM; TGI [39]: 3.25 µM; GI50 [40]: 2630 nM; TGI [40]: 6.4 µM; GI50 [41]: 1580 nM; TGI [41]: 3.38 µM; GI50 [42]: 867 nM; TGI [42]: 3.54 µM; GI50 [43]: 1990 nM; TGI [43]: 5.49 µM; GI50 [44]: 1670 nM; TGI [44]: 3.53 µM; GI50 [45]: 1750 nM; TGI [45]: 4.15 µM; GI50 [46]: 2960 nM; TGI [46]: 10.9 µM; GI50 [47]: 12.2 µM; TGI [47]: 25.4 µM; GI50 [48]: 1540 nM; TGI [48]: 4.72 µM; GI50 [49]: 1600 nM; TGI [49]: 3.32 µM; GI50 [50]: 2400 nM; TGI [50]: 6.72 µM; GI50 [51]: 1880 nM; TGI [51]: 4.89 µM; GI50 [52]: 1560 nM; TGI [52]: 2930 nM; GI50 [53]: 2260 nM; TGI [53]: 5.98 µM; GI50 [54]: 1730 nM; TGI [54]: 3.3 µM; GI50 [55]: 1560 nM; TGI [55]: 3.33 µM; GI50 [56]: 2960 nM; TGI [56]: 8.84 µM; GI50 [57]: 1780 nM; TGI [57]: 3.6 µM; GI50 [58]: 1900 nM; TGI [58]: 4.82 µM
